Data set [1] is described as follows: alamarBlue cytotoxicity (CC50), GT2a replicon cell line. Particulars: human. On the procedure:
(§1) The anti-HCV activity of STG-175 was conducted using a panel of luciferase reporter replicon cell lines including GT1a, GT1b, GT2a, GT3a and GT4a as we described previously. The GT1a subgenomic renilla luciferase reporter replicon H77 RLucP (7) was supplied by Dr. Delaney. The GT1b subgenomic firefly luciferase reporter replicon pFK-I389/NS3-3’ [29] was supplied by Dr. Bartenschlager. The GT1B subgenomic NS3, NS5A and NS5B mutants were created via homologous recombination using the In-Fusion HD Cloning kit (Clontech) as we described previously. The GT2a genomic luciferase reporter replicon Luc-Neo-JFH-1 was generated as previously. The plasmid pFK-Luc-JFH1 was supplied from Drs. […] The CellTiter-Fluor™ Cell Viability Assay is a non-lytic fluorescence assay, which measures the number of live cells. […] Luciferase activity was determined using the Luciferase Assay System (Promega) in a Berthold luminometer. […] Viable cells continuously convert resazurin to resorufin, increasing the overall fluorescence and color of the media surrounding cells.
(§2) Fig 2 Anti-HCV activities of STG-175 among GTs. […] Luciferase activity was determined using the Luciferase Assay System in a Berthold luminometer. […] Data are expressed as mean of relative light units and calculated EC50s are presented. […]
A general note: Resazurin is reduced to fluorescent resorufin, in cell work by metabolically active cells.

In another data set the test system is GT2a replicon cell line. The data set is described as above. Particulars: GT2a replicon cell line. Here is the method:
as §1, §2

In data set [2] the test system is HCV GT2a genomic replicon Luc-Neo-JFH-1. In words: Luciferase reporter replicon antiviral assay, GT2a. Particulars: Hepatitis C virus. The class given is cell-based. On the procedure:
as §1, §2
Background: Reporter assays use an easily measured gene product as a stand-in for the process of interest.

Data set [3] relates to NS3i-resistant R155Q/A156T NS3 Con1 GT1b replicon. In words: Electroporated Con1 RNA replication in Huh7.5.1 cells (RT-qPCR), R155Q/A156T NS3. To be noted: Hepatitis C virus, Huh-7.5.1, 192 h, read-out: EC50 R155Q/A156T NS3. It is filed as cell-based. An excerpt:
The GT1b subgenomic firefly luciferase reporter replicon pFK-I389/NS3–3 was provided by R. Bartenschlager. The GT1B subgenomic NS3, NS5A and NS5B mutants were created via homologous recombination using the In-Fusion HD Cloning kit (Clontech) as we described previously. […] The in vitro transcription of wild-type and mutant Con1 RNA was accomplished using the T7 MEGAscript kit (Ambion) by following the manufacturer’s instructions. In vitro-transcribed RNAs were introduced into Huh7.5.1 cells by electroporation. Trypsinized cells were washed twice and resuspended in phosphate-buffered saline (PBS) (calcium-free and magnesium-free) at 1x 10^7 cells per ml. Ten micrograms of RNA for each mutant was mixed with 0.4 mL of cells in a 4-mm cuvette, and a Bio-Rad Gene Pulser system was used to deliver a single pulse at 0.27 kV, 100 ohms, and 960 μF. […] RNA transfection efficiency and HCV subgenomic replication were assessed by reverse transcription-quantitative PCR (RT-qPCR) and presented as genome equivalents (GE) per microgram of total RNA as described previously. We measured by RT-qPCR the replication of wild-type, STG-175-, NS5Ai-, NS3i- and NS5Bi-resistant mutants in the presence of increasing concentrations of SGT-175, daclatasvir, telaprevir, boceprevir and sofosbuvir over a period of 8 days.
Fig 5 Cross-resistance analyses. […] Data are expressed as log of GE/μg of total RNA. […]

Structures are written as SMILES. Like-named read-outs stand apart in the source and are kept apart here. Bounds are passed on as bounds.

As for `CC=CCC(C)C(O)C1C(=O)NC(CC)C(=O)N(C)C(CSCCCCO)C(=O)N(C)C(CC(C)(C)O)C(=O)NC(C(C)C)C(=O)N(C)C(CC(C)C)C(=O)NC(C)C(=O)NC(C)C(=O)N(C)C(CC(C)C)C(=O)N(C)C(CC(C)C)C(=O)N(C)C(C(C)C)C(=O)N1C` (centres unmarked) [STG-175], the CC50 at 72 h in data set [1] is greater than 10 µM. Moreover, in the data set with GT2a replicon cell line, the “cell viability toward increasing doses (alamarBlue)” value was “lack of cellular cytotoxicity”. In addition, the EC50 turned out to be 11.5 nM in data set [2] (72 h post-drug addition, luciferase, read-out: EC50 GT2a); 11.5 nM in data set [2] (Fig 2D table, unit inferred, read-out: EC50 GT2a (Fig 2D)); 13.6 nM in data set [3].

One may read the CC50 as the concentration giving 50% cytotoxicity.

These data come from publication PMC4841536, “Characterization of the Anti-HCV Activities of the New Cyclophilin Inhibitor STG-175” (PLoS ONE, 2016).
